Earlier results as cited in patent US8303934B2, “Methods and compositions of [32P]-labeled adenine nucleotides for the treatment of atherosclerosis, vascular arterial diseases and coronary artery diseases” (priority 2011, dated 2012).

Tested on: established human xenographed tumors
Details: established human xenografted tumors in athymic mice; low-level doses

Nc1ncnc2c1ncn2[C@@H]1O[C@H](COP(=O)(O)OP(=O)(O)OP(=O)(O)O)[C@@H](O)[C@H]1O [[32P]ATP, [32P]adenosine 5′-triphosphate]
activity as an anti-tumor cytotoxic agent: very active
